Data as given in patent US11759411B2, “Non-therapeutic use of a biodegradable hydrocarbon oil” (TOTAL MARKETING SERVICES, priority 2017, dated 2023).
Marks after values point to notes of the source that are not given here.

How the values were obtained:
[1] = system: HaCaT cells; assay: H2DCF-DA test, production of ROS after oil then preservative (POE or MIT); format: cell-based
Method: (§1) The following standards and methods were used to measure the properties hereinabove: • flash point: EN ISO 2719 • density at 15° C.: EN ISO 1185 • viscosity at 40° C.: EN ISO 3104 • aniline point: EN ISO 2977 • boiling point: ASTM D86 • biodegradability: OECD method 306 • refractive index at 20° C.: ASTM D 1218 • vapour pressure: calculated according to methods well known to those skilled in the art Tests for Anti-Wrinkle or Anti-Ageing Cosmetic Applications Preparation of the Tests: • Preparation of the microplates: 24 hours before the incubation with the oils A and B, the HaCaT cells are inoculated with a cell density of 100,000 cells/ml in 96-well microplates (Corning). […]
The cellular effects are evaluated directly on the adherent living cells by cytofluorimetric microtitration (MiFALC tests-Microtitration Fluorimetric Assays on Live Cells). The microplate reader used in the study is the Safire cytometer (Tecan).
The test H2DCF-DA (2′,7′-dihydrodichlorofluoresceine diacetate) is used in order to evaluate the production of reactive oxygen species. […] Thus, an increase in the intensity of fluorescence is combined with an increase in the production of reactive oxygen species (ROS) and by extrapolation with an increase in the oxidative stress in the cells studied.
Preservatives, used as an additive in cosmetic compositions, were evaluated. […]

[2] = system: HaCaT cells; assay: HOECHST 33342 test, condensation of the chromatin; format: cell-based; settings: one hour with oil or CM, then 20 minutes with BAC 8 ppm by weight, HOECHST 33342, HaCat cells
Method: as §1, with “(Corning). The microplates are then placed in the incubator at 37° C. In a microplate, each condition was tested at least three times. Each experiment was carried out at least three times independently in order to validate the reproducibility of the results and to carry out statistical analyses. • Incubation of cells with the oils A or B: two durations of incubation were selected for the products to be tested pure: an incubation for fifteen minutes and an incubation for one hour.” for “(Corning).”
The cellular effects are evaluated directly on the adherent living cells by cytofluorimetric microtitration (MiFALC tests-Microtitration Fluorimetric Assays on Live Cells). The microplate reader used in the study is the Safire cytometer (Tecan). […]

## Cn1sccc1=O [MIT, methylisothiazolinone]
[1]; oil or none, then MIT
  Production of ROS: 135 % relative to the CM

## benzalkonium chloride [CM + BAC]
[2]
  Measurement of the condensation of the chromatin: 138*** % relative to the CM

## phenoxyethanol [CM + POE]
[1]; oil or CM (e.g. 15 minutes) then POE (e.g. 30 minutes, phenoxyethanol 250 μg/mL)
  Production of ROS: 132 % relative to the CM
